Experimental data reported in US8598085B2, “2-(2-fluoro-substituted phenyl)-6-amino-5-chloro-4-pyrimidinecarboxylates and their use as herbicides” (Dow AgroSciences LLC, priority 2007, dated 2013).

Key:
[1] = system: SORVU—Common sorghum (Sorghum vulgare); assay: General preemergence herbicidal activity, common sorghum; type: in vivo; details: pre-emergent, rate 140 g ai/ha, visual score after 20-22 days (0 no injury, 100 complete kill or no emergence), read-out: % Growth Inhibition SORVU
Source text: (§1) Seeds of the desired test plant species were planted in a soil matrix prepared by mixing a loam soil (43 percent silt, 19 percent clay, and 38 percent sand, with a pH of about 8.1 and an organic matter content of about 1.5 percent) and sand in a 70 to 30 ratio. The soil matrix was contained in plastic pots with a surface area of 113 square centimeters. When required to ensure good germination and healthy plants, a fungicide treatment and/or other chemical or physical treatment was applied. A weighed amount, determined by the highest rate to be tested, of each test compound was placed in a 25 mL glass vial and was dissolved in 6 mL of a 97:3 v/v (volume/volume) mixture of acetone and DMSO to obtain concentrated stock solutions. […] The stock solutions obtained were diluted with 18 mL of a 0.1% v/v aqueous solution of Tween® 20 surfactant to obtain spray solutions containing the highest application rate. Additional application rates were obtained by serial dilution of 12 mL of the high rate solution into a solution containing 3 mL of 97:3 v/v mixture of acetone and DMSO and 9 mL of the 0.1% v/v aqueous solution of Tween® 20 surfactant to obtain 1⁄2X, 1⁄4X, 1⁄8X and 1/16X rates of the high rate. Compound requirements are based upon a 12 mL application volume at a rate of 187 L/ha. Formulated compounds were applied to the plant material with an overhead Mandel track sprayer equipped with […] nozzles calibrated to deliver 187 L/ha over an application area of 0.503 square meters at a spray height of 18 inches (43 cm) above the soil surface. Control plants were sprayed in the same manner with the solvent blank. The treated pots and control pots were placed in a greenhouse maintained with an approximate 15 hour photoperiod and temperatures of about 23-29° C. during the day and 22-28° C. during the night. Nutrients and water were added on a regular basis and supplemental lighting was provided with overhead metal halide 1000-Watt lamps as necessary. The water was added by top-irrigation. After 20-22 days, the condition of the test plants that germinated and grew as compared with that of the untreated plants that emerged and grew was determined visually and scored on a scale of 0 to 100 percent where 0 corresponds to no injury and 100 corresponds to complete kill or no emergence.

[2] = system: ABUTH—Velvetleaf (Abutilon theophrasti); assay: General postemergence herbicidal activity, velvetleaf; type: in vivo; details: post-emergence, 336 h, post-emergent, rate 140 g ai/ha, visual score after 14 days (0 no injury, 100 complete kill), read-out: % Growth Reduction ABUTH
Protocol: (§2) Seeds or nutlets of the desired test plant species were planted in Sun Gro MetroMix® 306 planting mixture, which typically has a pH of 6.0 to 6.8 and an organic matter content of about 30 percent, in plastic pots with a surface area of 64 square centimeters. When required to ensure good germination and healthy plants, a fungicide treatment and/or other chemical or physical treatment was applied. The plants were grown for 7-21 days in a greenhouse with an approximate 15 hour photoperiod which was maintained at about 23-29° C. during the day and 22-28° C. during the night. Nutrients and water were added on a regular basis and supplemental lighting was provided with overhead metal halide 1000-Watt lamps as necessary. The plants were employed for testing when they reached the first or second true leaf stage.
(§3) A weighed amount, determined by the highest rate to be tested, of each test compound was placed in a 25 mL glass vial and was dissolved in 4 mL of a 97:3 v/v (volume/volume) mixture of acetone and dimethyl sulfoxide (DMSO) to obtain concentrated stock solutions. […] The concentrated stock solutions obtained were diluted with 20 mL of an aqueous mixture containing acetone, water, isopropyl alcohol, DMSO, Atplus 411F crop oil concentrate, and Triton X-155 surfactant in a 48.5:39:10:1.5:1.0:0.02 v/v ratio to obtain spray solutions containing the highest application rates. Additional application rates were obtained by serial dilution of 12 mL of the high rate solution into a solution containing 2 mL of 97:3 v/v (volume/volume) mixture of acetone and DMSO and 10 mL of an aqueous mixture containing acetone, water, isopropyl alcohol, DMSO, Atplus 411F crop oil concentrate, and Triton X-155 surfactant in a 48.5:39:10:1.5:1.0:0.02 v/v ratio to obtain ½X, ¼X, ⅛X and 1/16X rates of the high rate. Compound requirements are based upon a 12 mL application volume at a rate of 187 L/ha. Formulated compounds were applied to the plant material with an overhead Mandel track sprayer equipped with 8002E nozzles calibrated to deliver 187 L/ha over an application area of 0.503 square meters at a spray height of 18 inches […] above the average plant canopy height. Control plants were sprayed in the same manner with the solvent blank.
(§4) The treated plants and control plants were placed in a greenhouse as described above and watered by sub-irrigation to prevent wash-off of the test compounds. After 14 days, the condition of the test plants as compared with that of the untreated plants was determined visually and scored on a scale of 0 to 100 percent where 0 corresponds to no injury and 100 corresponds to complete kill.

[3] = system: CHEAL—Common lambsquarters (Chenopodium album); assay: General preemergence herbicidal activity, common lambsquarters; type: in vivo; details: pre-emergent, rate 140 g ai/ha, visual score after 20-22 days (0 no injury, 100 complete kill or no emergence), read-out: % Growth Inhibition CHEAL
Source text: as §1

[4] = system: CIRAR—Canada thistle (Cirsium arvense); assay: General postemergence herbicidal activity, Canada thistle; type: in vivo; details: post-emergence, 336 h, post-emergent, rate 140 g ai/ha, visual score after 14 days (0 no injury, 100 complete kill), read-out: % Growth Reduction CIRAR
Protocol: as §2, §3, §4

[5] = system: HELAN—Common sunflower (Helianthus annuus); assay: General preemergence herbicidal activity, common sunflower; type: in vivo; details: pre-emergent, rate 140 g ai/ha, visual score after 20-22 days (0 no injury, 100 complete kill or no emergence), read-out: % Growth Inhibition HELAN
Source text: as §1

ZEAMX—Corn (Zea mays) = assay: General preemergence herbicidal activity, corn; type: in vivo; details: pre-emergent, rate 140 g ai/ha, visual score after 20-22 days (0 no injury, 100 complete kill or no emergence), read-out: % Growth Inhibition ZEAMX
Source text: as §1

[6] = system: ABUTH—Velvetleaf (Abutilon theophrasti); assay: General preemergence herbicidal activity, velvetleaf; type: in vivo; details: pre-emergent, rate 140 g ai/ha, visual score after 20-22 days (0 no injury, 100 complete kill or no emergence), read-out: % Growth Inhibition ABUTH
Source text: as §1

[7] = system: ECHCG—Barnyardgrass (Echinochloa crus-galli); assay: General postemergence herbicidal activity, barnyardgrass; type: in vivo; details: post-emergence, 336 h, post-emergent, rate 140 g ai/ha, visual score after 14 days (0 no injury, 100 complete kill), read-out: % Growth Reduction ECHCG
Protocol: as §2, §3, §4

[8] = system: POLCO—Wild buckwheat (Polygonum convolvulus); assay: General postemergence herbicidal activity, wild buckwheat; type: in vivo; details: Fallopia convolvulus, post-emergence, 336 h; post-emergent, rate 140 g ai/ha, visual score after 14 days (0 no injury, 100 complete kill); read-out: % Growth Reduction POLCO
Protocol: as §2, §3, §4

Compound | inhibition at 140 g/ha [1] [%] | pest or weed control at 140 g/ha [2] [%] | inhibition at 140 g/ha [3] [%] | pest or weed control at 140 g/ha [4] [%] | inhibition at 140 g/ha [5] [%] | inhibition at 140 g/ha (ZEAMX—Corn (Zea mays)) [%] | inhibition at 140 g/ha [6] [%] | pest or weed control at 140 g/ha [7] [%] | pest or weed control at 140 g/ha [8] [%] | melting point [°C]
Cc1ccc(-c2nc(N)c(Cl)c(C(=O)O)n2)c(F)c1F [Compound 14, 6-Amino-5-chloro-2-(2,3-difluoro-4-methylphenyl)pyrimidine-4-carboxylic acid] | 40 | 90 | 100 | 85 | 60 | 30 | 100 | 95 | 80 | –
COC(=O)c1nc(-c2ccc(C(F)F)cc2F)nc(N)c1Cl [Compound 9, 6-Amino-5-chloro-2-(4-difluoromethyl-2-fluorophenyl)pyrimidine-4-carboxylic acid methyl ester] | – | 45 | – | 40 | – | – | – | 0 | 35 | –
COC(=O)c1nc(-c2ccc(C(F)(F)F)cc2F)nc(N)c1Cl [Compound 5, 6-Amino-5-chloro-2-(2-fluoro-4-trifluoromethylphenyl)pyrimidine-4-carboxylic acid methyl ester] | – | 70 | – | 85 | – | – | – | 0 | 80 | –
COC(=O)c1nc(-c2ccc(C)c(F)c2F)nc(N)c1Cl [Compound 4, 6-Amino-5-chloro-2-(2,3-difluoro-4-methylphenyl)pyrimidine-4-carboxylic acid methyl ester] | – | 99 | – | 60 | – | – | – | 90 | 80 | –
Nc1nc(-c2cc(Cl)c(Cl)cc2F)nc(C(=O)O)c1Cl [Compound 17, 6-Amino-5-chloro-2-(4,5-dichloro-2-fluorophenyl)pyrimidine-4-carboxylic acid] | – | 85 | – | 90 | – | – | – | – | 95 | –
COC(=O)c1nc(-c2ccc(C(F)(F)F)c(F)c2F)nc(N)c1Cl [Compound 6, 6-Amino-5-chloro-2-(2,3-difluoro-4-trifluoromethylphenyl)pyrimidine-4-carboxylic acid methyl ester] | – | 90 | – | 80 | – | – | – | 25 | 95 | –
COC(=O)c1nc(-c2cc(Cl)c(Cl)cc2F)nc(N)c1Cl [Compound 10, 6-Amino-5-chloro-2-(4,5-dichloro-2-fluorophenyl)pyrimidine-4-carboxylic acid methyl ester] | – | 90 | – | 95 | – | – | – | – | 100 | –
COC(=O)c1nc(-c2cc(F)c(Cl)cc2F)nc(N)c1Cl [Compound 20, 6-Amino-5-chloro-2-(4-chloro-2,5-difluorophenyl)-pyrimidine-4-carboxylic acid methyl ester] | – | 99 | – | 95 | – | – | – | 95 | 100 | –
COC(=O)c1nc(-c2cc(F)c(C)cc2F)nc(N)c1Cl [Compound 8, 6-Amino-5-chloro-2-(2,5-difluoro-4-methylphenyl)pyrimidine-4-carboxylic acid methyl ester] | – | 95 | – | 45 | – | – | – | 0 | 60 | –
Cc1cc(F)c(-c2nc(N)c(Cl)c(C(=O)O)n2)cc1F [Compound 18, 6-Amino-5-chloro-2-(2,5-difluoro-4-methylphenyl)pyrimidine-4-carboxylic acid] | – | 100 | – | 100 | – | – | – | 75 | 40 | –
CCOC(=O)c1nc(-c2ccc(Cl)cc2F)nc(N)c1Cl [Compound 19, 6-Amino-5-chloro-2-(4-chloro-2-fluorophenyl)pyrimidine-4-carboxylic acid ethyl ester] | – | 99 | – | 95 | – | – | – | 80 | 100 | 131 to 132
COC(=O)c1nc(-c2ccc(Cl)c(F)c2F)nc(N)c1Cl [Compound 2, 6-Amino-5-chloro-2-(4-chloro-2,3-difluorophenyl)pyrimidine-4-carboxylic acid methyl ester] | – | 100 | – | 100 | – | – | – | 95 | 100 | 187 to 189
COC(=O)c1nc(-c2ccc(Cl)cc2F)nc(N)c1Cl [Compound 1, 6-Amino-5-chloro-2-(4-chloro-2-fluorophenyl)pyrimidine-4-carboxylic acid methyl ester] | – | 100 | – | 100 | – | – | – | 90 | 95 | 194 to 196
Cc1ccc(-c2nc(N)c(Cl)c(C(=O)O)n2)c(F)c1 [Compound 13, 6-Amino-5-chloro-2-(2-fluoro-4-methylphenyl)pyrimidine-4-carboxylic acid] | 50 | – | 95 | – | – | 10 | 95 | – | – | –
